# Assay results taken from patent US7414041B2 (Trustees Of Tufts College, priority 1991, dated 2008).
# Where two headings read alike, the source gives them in different places.
# How the values were obtained:
# [1] = target: T1, TET proteins responsible for tetracycline efflux (Class B tetracycline resistance determinant, strain D1-209) (Escherichia coli, UniProt P02980); experiment: biochemical; set-up: species or system E. coli
# T1 construct: Everted vesicles, to which the TET proteins responsible for tetracycline efflux are attached; endogenous in cells; host or cells: E. coli strain D1-209 (everted membrane vesicles)
# T1 sequence (P02980 whole entry): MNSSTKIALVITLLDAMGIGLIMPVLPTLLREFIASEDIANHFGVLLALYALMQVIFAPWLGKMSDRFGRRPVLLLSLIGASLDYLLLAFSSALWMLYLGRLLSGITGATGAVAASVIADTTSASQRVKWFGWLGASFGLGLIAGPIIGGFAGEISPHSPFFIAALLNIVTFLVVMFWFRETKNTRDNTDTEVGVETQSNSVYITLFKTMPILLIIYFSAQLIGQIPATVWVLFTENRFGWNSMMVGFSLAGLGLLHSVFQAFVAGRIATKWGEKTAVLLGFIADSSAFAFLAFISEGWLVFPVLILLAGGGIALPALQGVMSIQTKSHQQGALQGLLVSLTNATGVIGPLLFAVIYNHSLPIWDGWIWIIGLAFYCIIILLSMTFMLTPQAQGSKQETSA
# [2] = system: E. coli Tc^s (MI 300-225); experiment: susceptibility testing MIC/MLC, drug alone; format: cell-based; details: Tc^s
# [3] = system: E. coli Class A Tc^r (DI-299); format: cell-based
# [4] = system: E. coli Class β Tc^r (DI-209); format: cell-based
# S. aureus Tc^s (RN450) = experiment: susceptibility testing MIC/MLC, drug alone; format: cell-based; details: for MLC: kills 99.9%
# S. aureus Tc^r (RN4250) = format: cell-based
# [5] = system: E. faecalis Tc^s (ATCC9790r); experiment: susceptibility testing MIC/MLC, drug alone; format: cell-based
# [6] = system: E. faecalis Tc^r (L) (ATCC9790r/Tet L); format: cell-based; details: for MIC: Tc^r (L); for MLC: E. faecalis Tet L
# [7] = system: E. faecalis Tc^r (M) (ATCC9790r/Tet M); format: cell-based
# E. faecalis (Tet M) = details: E. faecalis (Class M)
# E. coli D1-299 (Tet A) = format: cell-based;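 note: E. coli at roughly 5×10^5 cells/ml in L broth, analog and doxycycline alone or mixed in two-fold dilutions from 50 to under 1 µg/ml, 18 h at 37 °C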
# S. aureus 4250 (Tet K) = experiment: MIC/MLC chart, analog with and without doxycycline; format: cell-based
# E. faecalis 158 (Tet L) = experiment: MIC/MLC chart, analog with and without doxycycline; format: cell-based
# E. faecalis 211 (Tet M) = experiment: MIC/MLC chart, analog with and without doxycycline; format: cell-based;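 note: broth checkerboard of two-fold drug dilutions, alone and mixed with doxycycline, bacteria near 5×10^5 cells/ml, 18 h incubation at 37 °C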
# [8] = uptake at 2.5 minutes, about 4 μM 3H-tetracycline, read-out: IC50
# [9] = doxycycline alone 1.56 μg/ml (Doxy Control)
# [10] = doxycycline alone 3.12 μg/ml (Doxy Control)
# [11] = doxycycline alone 6.25 μg/ml (Doxy Control)
# [12] = doxycycline alone 12.5 μg/ml (Doxy Control)
molecule,measurement,setting,value
CN(C)[C@@H]1C(O)=C(C(N)=O)C(=O)C2(O)C(O)=C3C(=O)c4c(O)cccc4C(CSC4CCCC4)C3[C@H](OC(=O)C3CCCC3)C12 (some centres unmarked) [Cmpd 10],IC50,[1]; [8],> 30 µM
6-deoxy-13-(cyclopentyl mercapto) tetracycline,MIC,[2]; 1st column,20 µg
same,MIC,[2]; 2nd column,60 µg
same,MIC,[3]; 1st column,40 ± 0.26 µg
same,MIC,[3]; 2nd column,60 µg
same,MIC,[4]; 1st column,60 ± 40 µg
same,MIC,[4]; 2nd column,100 ± 60 µg
same,MIC,S. aureus Tc^s (RN450),1 µg
same,MLC,S. aureus Tc^s (RN450),5 µg
same,MLC,S. aureus Tc^r (RN4250); resistant S. aureus,6 ± 2 µg/mL
same,MIC,[5]; 1st column,1 ± 0.26 µg
same,MIC,[5]; 2nd column,10 ± 4 µg
same,MIC,[6]; 1st column,1 ± 0.6 µg
same,MIC,[7]; 1st column,3 ± 1 µg
same,synergistic activity with tetracycline,E. faecalis (Tet M),"little, if any synergistic activity"
CC(C)SCC1c2cccc(O)c2C(=O)C2=C(O)C3(O)C(=O)C(C(N)=O)=C(O)C(N(C)C)C3C(O)C21 (centres unmarked) [Isopropyl],MIC,[2]; 1st column,22 ± 2 µg
same,MIC,[2]; 2nd column,60 µg
same,MIC,[3]; 1st column,46 ± 6 µg
same,MIC,[3]; 2nd column,60 µg
same,MIC,[4]; 1st column,35 ± 6 µg
same,MIC,[4]; 2nd column,46 ± 16 µg
same,MIC,S. aureus Tc^s (RN450),0.5 ± 0.25 µg
same,MLC,S. aureus Tc^s (RN450),6 ± 2 µg
same,MIC,S. aureus Tc^r (RN4250); Tc^r RN4250,4.5 ± 0.5 µg
same,MLC,"S. aureus Tc^r (RN4250); Tc^r RN4250, kills 99.9%",8 µg
same,MIC,[5]; 1st column,3 ± 1 µg
same,MIC,[5]; 2nd column,20 ± 0.26 µg
same,MIC,[6]; 1st column,3 ± 1 µg
same,MIC,[6]; 2nd column,100 ± 0.25 µg
same,MIC,[7]; 2nd column,>200 µg
CC1c2cccc(O)c2C(=O)C2=C(O)C3(O)C(=O)C(C(N)=O)=C(O)[C@@H](N(C)C)C3[C@@H](OC(=O)CCC(=O)O)C21 (some centres unmarked) [Cmpd 6],IC50,[1],2 µM
6-deoxy-13-(cyclohexyl mercapto) tetracycline,MIC,[2]; 1st column,60 ± 10 µg
same,MIC,[2]; 2nd column,120 µg
same,MIC,[3]; 1st column,100 ± 0.26 µg
same,MIC,[3]; 2nd column,>200 µg
same,MIC,S. aureus Tc^s (RN450),2.5 ± 1.25 µg
same,MLC,S. aureus Tc^s (RN450),10 ± 5 µg
same,MIC,[5]; 1st column,1.26 ± 0.26 µg
same,MIC,[5]; 2nd column,8 µg
same,MLC,[6],8 ± 2 µg/mL
same,MIC,[6]; 1st column,1.6 ± 0.6 µg
same,MIC,[7]; 1st column,2.6 ± 0.6 µg
same,synergistic activity with tetracycline,E. faecalis (Tet M),"little, if any synergistic activity"
6-deoxy-13-(benzyl mercapto) tetracycline,MIC,[2]; 1st column,16 ± 6 µg
same,MIC,[2]; 2nd column,26 ± 6 µg
same,MIC,[3]; 1st column,46 ± 20 µg
same,MIC,[3]; 2nd column,160 ± 60 µg
same,MIC,[4]; 1st column,30 ± 0.26 µg
same,MIC,[4]; 2nd column,60 ± 10 µg
same,MIC,S. aureus Tc^s (RN450),0.2 ± 0.1 µg
same,MLC,S. aureus Tc^s (RN450),10 ± 2 µg
same,MIC,[5]; 1st column,0.6 ± 0.25 µg
same,MIC,[5]; 2nd column,8 ± 0.26 µg
same,MLC,[6],8 ± 2 µg/mL
same,MIC,[6]; 1st column,0.76 ± 0.26 µg
same,MIC,[7]; 1st column,3.6 ± 1 µg
same,synergistic activity with tetracycline,E. faecalis (Tet M),"little, if any synergistic activity"
"CN(C)c1ccc(O)c2c1C[C@H]1C[C@H]3[C@H](N(C)C)C(=O)C(C(N)=O)=C(O)[C@@]3(O)C(=O)C1=C2O [Minocycline, reference compound]",MIC,[2]; 1st column,<4 µg
same,MIC,[2]; 2nd column,<4 µg
same,MIC,[3]; 1st column,<4 µg
same,MIC,[3]; 2nd column,20 µg
same,MIC,[4]; 1st column,6 ± 2 µg
same,MIC,[4]; 2nd column,30 ± 10 µg
same,MIC,S. aureus Tc^s (RN450),<0.25 µg
same,MLC,S. aureus Tc^s (RN450),8 µg
same,MIC,S. aureus Tc^r (RN4250); Tc^r RN4250,<0.25 µg
same,MLC,"S. aureus Tc^r (RN4250); Tc^r RN4250, kills 99.9%",>80 µg
same,MIC,[5]; 1st column,<0.26 µg
same,MIC,[5]; 2nd column,>40 µg
same,MIC,[6]; 1st column,<0.26 µg
same,MIC,[6]; 2nd column,>80 µg
same,MIC,[7]; 1st column,10 µg
same,MIC,[7]; 2nd column,>80 µg
"C=C1c2cccc(O)c2C(=O)C2=C(O)C3(O)C(=O)C(C(N)=O)=C(O)C(N(C)C)C3C(OC(=O)C3CC3)C12 (centres unmarked) [Cmpd 11, 5 cyclopropanoate methacycline]",IC50,[1],9.4 µM
CCCCCCCC(=O)O[C@H]1C2C(=C(O)C3(O)C(=O)C(C(N)=O)=C(O)[C@@H](N(C)C)C13)C(=O)c1c(O)cccc1C2C (some centres unmarked) [Cmpd 4],IC50,[1],9.3 µM
CN(C)[C@@H]1C(O)=C(C(N)=O)C(=O)C2(O)C(O)=C3C(=O)c4c(O)cccc4C(CSC4CCCC4)C3[C@H](OC(=O)C3CCCCC3)C12 (some centres unmarked) [Cmpd 9],IC50,[1],> 30 µM
CC1c2cccc(O)c2C(=O)C2=C(O)C3(O)C(=O)C(C(N)=O)=C(O)[C@@H](N(C)C)C3[C@@H](OCCCN)C21 (some centres unmarked) [Cmpd 7],IC50,[1]; [8],6.4 µM
"C[C@H]1c2cccc(O)c2C(O)=C2C(=O)[C@]3(O)C(O)=C(C(N)=O)C(=O)[C@@H](N(C)C)[C@@H]3[C@@H](O)[C@@H]21 [Doxy, Doxycycline, reference compound]",MIC/MLC chart symbol,"E. coli D1-299 (Tet A); Chart 6A, Doxy Control (doxycycline alone), μg/ml = number in line above",◯ and +
same,growth / no growth (MIC) / killing (MLC) symbol,E. coli D1-299 (Tet A); doxy alone 1.56 μg/ml,+
same,growth / no growth (MIC) / killing (MLC) symbol,E. coli D1-299 (Tet A); doxy alone 3.12 μg/ml,+
same,growth / no growth (MIC) / killing (MLC) symbol,E. coli D1-299 (Tet A); doxy alone 6.25 μg/ml,+
same,growth / no growth (MIC) / killing (MLC) symbol,E. coli D1-299 (Tet A); doxy alone 12.5 μg/ml,+
same,growth / no growth (MIC) / killing (MLC) symbol,E. coli D1-299 (Tet A); doxy alone 25 μg/ml,◯
same,MIC/MLC chart: growth or killing,E. coli D1-299 (Tet A); [9],+
same,MIC/MLC chart: growth or killing,E. coli D1-299 (Tet A); [10],+
same,MIC/MLC chart: growth or killing,E. coli D1-299 (Tet A); [11],+
same,MIC/MLC chart: growth or killing,E. coli D1-299 (Tet A); [12],+
same,MIC/MLC chart: growth or killing,E. coli D1-299 (Tet A); doxycycline alone 25.0 μg/ml (Doxy Control),+
same,MIC/MLC chart symbol,"S. aureus 4250 (Tet K); Chart 6B, Doxy Control (doxycycline alone), μg/ml = number in line above",+
same,growth / no growth (MIC) / killing (MLC) symbol,S. aureus 4250 (Tet K); doxy alone 1.56 μg/ml,+
same,growth / no growth (MIC) / killing (MLC) symbol,S. aureus 4250 (Tet K); doxy alone 3.12 μg/ml,+
same,growth / no growth (MIC) / killing (MLC) symbol,S. aureus 4250 (Tet K); doxy alone 6.25 μg/ml,+
same,growth / no growth (MIC) / killing (MLC) symbol,S. aureus 4250 (Tet K); doxy alone 12.5 μg/ml,+
same,MIC/MLC chart: growth or killing,S. aureus 4250 (Tet K); [9],+
same,MIC/MLC chart: growth or killing,S. aureus 4250 (Tet K); [10],+
same,MIC/MLC chart: growth or killing,S. aureus 4250 (Tet K); [11],+
same,MIC/MLC chart: growth or killing,S. aureus 4250 (Tet K); [12],◯
same,MIC/MLC chart symbol,"E. faecalis 158 (Tet L); Chart 6C, Doxy Control (doxycycline alone), μg/ml = number in line above",+
same,growth / no growth (MIC) / killing (MLC) symbol,E. faecalis 158 (Tet L); doxy alone 1.56 μg/ml,+
same,growth / no growth (MIC) / killing (MLC) symbol,E. faecalis 158 (Tet L); doxy alone 3.12 μg/ml,+
same,growth / no growth (MIC) / killing (MLC) symbol,E. faecalis 158 (Tet L); doxy alone 6.25 μg/ml,+
same,growth / no growth (MIC) / killing (MLC) symbol,E. faecalis 158 (Tet L); doxy alone 12.5 μg/ml,↓
same,MIC/MLC chart: growth or killing,E. faecalis 158 (Tet L); [9],+
same,MIC/MLC chart: growth or killing,E. faecalis 158 (Tet L); [10],+
same,MIC/MLC chart: growth or killing,E. faecalis 158 (Tet L); [11],+
same,MIC/MLC chart symbol,"E. faecalis 211 (Tet M); Chart 6D, Doxy Control (doxycycline alone), μg/ml = number in line above",↓ and +
same,growth / no growth (MIC) / killing (MLC) symbol,E. faecalis 211 (Tet M); doxy alone 1.56 μg/ml,+
same,growth / no growth (MIC) / killing (MLC) symbol,E. faecalis 211 (Tet M); doxy alone 3.12 μg/ml,+
same,growth / no growth (MIC) / killing (MLC) symbol,E. faecalis 211 (Tet M); doxy alone 6.25 μg/ml,+
same,growth / no growth (MIC) / killing (MLC) symbol,E. faecalis 211 (Tet M); doxy alone 12.5 μg/ml,+
same,growth / no growth (MIC) / killing (MLC) symbol,E. faecalis 211 (Tet M); doxy alone 25 μg/ml,↓
same,MIC/MLC chart: growth or killing,E. faecalis 211 (Tet M); [9],+
same,MIC/MLC chart: growth or killing,E. faecalis 211 (Tet M); [10],+
same,MIC/MLC chart: growth or killing,E. faecalis 211 (Tet M); [11],+
same,MIC/MLC chart: growth or killing,E. faecalis 211 (Tet M); [12],+
"CN(C)C1C(O)=C(C(N)=O)C(=O)C2(O)C(O)=C3C(=O)c4c(O)cccc4C(C)(O)C3CC12 (centres unmarked) [Tetracycline, 4-(Dimethylamino)-1,4,4a,5,5a,6-11,12a-octahydro-3,6,10,12,12a-pentahydroxy-6-methyl-1-11-dioxo-2-naphth acenecarboxamide, reference compound]",MIC,[2]; 1st column,0.6 ± 0.26 µg
same,MIC,[2]; 2nd column,40 ± 0.26 µg
same,MIC,[3]; 1st column,160 ± 0.26 µg
same,MIC,[3]; 2nd column,200 µg
same,MIC,[4]; 1st column,>200 µg
same,MIC,[4]; 2nd column,>200 µg
same,MIC,S. aureus Tc^s (RN450),0.75 ± 0.25 µg
same,MLC,S. aureus Tc^s (RN450),>6 µg
same,MIC,S. aureus Tc^r (RN4250); Tc^r RN4250,90 ± 10 µg
same,MLC,"S. aureus Tc^r (RN4250); Tc^r RN4250, kills 99.9%",100 µg
same,MIC,[5]; 1st column,0.26 µg
same,MIC,[5]; 2nd column,>200 µg
same,MIC,[6]; 1st column,90 ± 10 µg
same,MIC,[6]; 2nd column,>300 µg
same,MIC,[7]; 1st column,100 µg
same,MIC,[7]; 2nd column,300 µg
